Laboratory results reported in patent US20070025986A1, “Modulation of HCN channels by second messengers” (priority 2003, published 2007).
Read-outs that look alike come from different tables or passages of the source. No end group written: not given here.

Tests used:
[1] = system: native pacemaker channels (IH); conditions: cited from earlier work
[2] = system: HCN1 channel; assay: Two microelectrode voltage clamp (2MEV) of HCN1 and HCN1 mutants expressed in Xenopus oocytes; type: cell-based, mouse; conditions: forskolin 10 μM, 30 min, SQ-22536 300 μM, 3 hr
[3] = target: T1, HCN2-R591E channel (Mus musculus, UniProt O88703, R591E); assay: Excised inside-out patch (IOP) clamp of HCN2-R591E after rundown, 4,5-PIP2 rescue; type: biochemical
T1 construct: expressed in transfected cells; host or cells: Xenopus oocytes (cRNA injection); excised inside-out patches
T1 sequence (O88703 1-863 R591E): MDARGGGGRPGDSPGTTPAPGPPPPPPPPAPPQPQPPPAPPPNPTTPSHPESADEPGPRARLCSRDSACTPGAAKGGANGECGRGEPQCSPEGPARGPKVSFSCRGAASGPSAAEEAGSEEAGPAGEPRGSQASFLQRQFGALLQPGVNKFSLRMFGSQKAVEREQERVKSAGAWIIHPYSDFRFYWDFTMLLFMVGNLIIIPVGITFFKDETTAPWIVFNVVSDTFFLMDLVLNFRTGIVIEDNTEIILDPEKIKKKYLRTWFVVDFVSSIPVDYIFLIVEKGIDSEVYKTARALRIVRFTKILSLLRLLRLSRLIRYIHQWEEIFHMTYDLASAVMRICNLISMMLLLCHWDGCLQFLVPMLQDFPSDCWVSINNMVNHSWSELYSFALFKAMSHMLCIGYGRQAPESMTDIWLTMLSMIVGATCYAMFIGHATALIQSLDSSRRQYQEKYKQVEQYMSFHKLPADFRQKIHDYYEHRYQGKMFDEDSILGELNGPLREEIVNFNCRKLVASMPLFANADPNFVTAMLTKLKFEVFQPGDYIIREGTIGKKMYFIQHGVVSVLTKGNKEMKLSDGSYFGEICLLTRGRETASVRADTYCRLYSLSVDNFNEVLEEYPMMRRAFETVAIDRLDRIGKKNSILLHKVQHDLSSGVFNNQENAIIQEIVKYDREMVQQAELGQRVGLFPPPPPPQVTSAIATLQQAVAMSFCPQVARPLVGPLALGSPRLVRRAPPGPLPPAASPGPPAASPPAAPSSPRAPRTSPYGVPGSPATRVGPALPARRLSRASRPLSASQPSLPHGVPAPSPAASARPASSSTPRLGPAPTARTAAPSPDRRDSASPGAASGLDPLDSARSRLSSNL
Experimental: Molecular Biology. […] Electrophysiology-General. […] Electrophysiology-Excised cell-free inside-out patch clamp recordings. […] When cAMP was applied, NaCl was replaced with equivalent amount of cAMP. In experiments where 4,5-PIP2, kinase inhibitors or other compounds were included, stock solutions of the compounds dissolved in either DMSO or H2O were added to the recording solutions to an appropriate final concentration. […] It was routinely tested and confirmed that addition of the solvents alone was without effect. Analysis of electrophysiological recordings. […] An HCN2-[…] construct was expressed in Xenopus oocytes. 2 MEV-clamp recording was performed to measure the gating activity of the HCN2-[…] channel in the intact Xenopus oocytes. IOP-clamp was performed to measure the gating activity of the HCN2-[…] channel under a “rundown” condition. IOP-clamp was also performed in the presence of 4,5-PIP2 to detect the effect of 4,5-PIP2 on the gating activity of the HCN2-[…] channel under a “rundown” condition.

[4] = target: T2, HCN1-ΔNvΔC channel (Mus musculus, UniProt O88704, A73M); assay: Excised inside-out patch (IOP) clamp of HCN1-ΔNvΔC and basic-residue alanine mutants with 4,5-PIP2; type: biochemical
T2 construct: HCN1-ΔNvΔCterm (amino acid positions 73 to 390 of mHCN1); expressed in transfected cells; host or cells: Xenopus oocytes (cRNA injection); excised inside-out patches
T2 sequence (O88704 73-390 A73M): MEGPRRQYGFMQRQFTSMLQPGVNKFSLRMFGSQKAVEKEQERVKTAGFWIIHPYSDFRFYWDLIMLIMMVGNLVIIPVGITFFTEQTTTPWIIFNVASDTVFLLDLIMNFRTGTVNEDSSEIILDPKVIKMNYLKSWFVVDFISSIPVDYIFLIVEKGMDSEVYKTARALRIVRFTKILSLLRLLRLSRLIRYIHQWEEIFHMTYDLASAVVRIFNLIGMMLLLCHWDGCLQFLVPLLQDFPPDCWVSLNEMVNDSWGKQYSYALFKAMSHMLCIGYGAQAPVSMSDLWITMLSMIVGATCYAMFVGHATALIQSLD
Experimental: Molecular Biology. […] Electrophysiology-General. […] Electrophysiology-Excised cell-free inside-out patch clamp recordings. […] When cAMP was applied, NaCl was replaced with equivalent amount of cAMP. In experiments where 4,5-PIP2, kinase inhibitors or other compounds were included, stock solutions of the compounds dissolved in either DMSO or H2O were added to the recording solutions to an appropriate final concentration. […] It was routinely tested and confirmed that addition of the solvents alone was without effect. Analysis of electrophysiological recordings. […] IOP-clamp was performed to measure the gating activity of the wild type and mutant channels under a “rundown” condition. […] The minimal 4,5-PIP2 responsive mouse HCN1 channel […] of mHCN1), were further mutated to produce the following constructs in which the basic amino acid residues Arginine, Lysine and Histidine are replaced […]), NT2 […], and […]), NT3 […], and […]), NT4 […], and […], and […], and […]), and […]). All individual point mutations were also constructed. The mutants were expressed in Xenopus oocytes. IOP clamp was performed with the mutant channels in the presence and absence of 5 μM 4,5-PIP2. […] Facilitation of HCN channel gating may be effected by direct interaction between 4,5-PIP2 and basic amino acid residues in the cytoplasmic region of the HCN channel. See hypothesis in the legend of FIG. 6.

[5] = DRG: Dorsal root ganglion neurons
[6] = ADn: Thalamic anterior dorsal relay neurons
[7] = CA1: CA1 pyramidal neurons or unidentified CA1 cells
[8] = MTNB: medial nucleus of the trapezoid body
[9] = SO: CA1 stratum oriens-alveus interneuron
[10] = CP: Cerebellar purkinje neurons
[11] = ORN: Olfactory receptor neurons

CCCCCCCC/C=C/CCCCCCCC(=O)OCC(CO)OC(C)=O (stereo not shown) [OAG]
Δ IMAX ([1]; SNPC: Substantia nigra pars compacta): −49% SNPC

Nc1ncnc2c1ncn2[C@@H]1O[C@H](CO)[C@@H](O)[C@H]1O [Adenosine]
Δ V1/2 [1, 5]: −7 mV
Δ V1/2 ([1]; SA: sinoatrial node): −6 mV

NCCc1c[nH]c2ccc(C(N)=O)cc12 [5CT]
Δ V1/2 [1, 6]: +15 mV
Δ IMAX [1, 7]: +50%
Δ V1/2 [1, 7]: +5 mV CA1
Δ V1/2 [1, 5]: +6 mV

Nc1ncnc2c1ncn2C1CCCO1 (stereo not shown) [SQ-22536]
Effect on gating ([2]; HCN1-R538E): not altered
Effect on V1/2 of activation ([2]; wild type HCN1): inhibited

Sub P: agonist listed for tachykinin NK 1/2/3 receptor (RPKPQQFFGLM; ends and bridges not checked; UniProt P20366 58-68, looked up)
Δ V1/2 ([1]; NG: Nodose ganglion): −20 mV. NG

CCCN(CCC)C1CCc2cccc(O)c2C1 (stereo not shown) [8-OH-DPAT]
Δ IMAX ([1]; ST: Solitary tract neurons): +100% ST

CC(C)NCC(O)c1ccc(O)c(O)c1 (stereo not shown) [Isoproterenol]
Δ IMAX ([1]; AT: atrial myocyte): +90%
Δ V1/2 ([1]; AT: atrial myocyte): +11 mV
Δ V1/2 ([1]; BC: cerebllar basket cell): +6 mV
Δ IMAX ([1]; ECM: Embryonic cardiomyocytes): +65%
Δ V1/2 [1, 8]: +12 mV
Δ IMAX [1, 9]: +30%
Δ IMAX ([1]; TR: thalamic relay): ECM; +31% TR; BC;
Δ V1/2 ([1]; TR: thalamic relay): +5 mV

NC[C@H](O)c1ccc(O)c(O)c1 [NorE]
Δ IMAX ([1]; AT: atrial myocyte): +90%
Δ V1/2 ([1]; AT: atrial myocyte): +11 mV
Δ V1/2 ([1]; BC: cerebllar basket cell): +6 mV
Δ IMAX ([1]; ECM: Embryonic cardiomyocytes): +65%
Δ V1/2 [1, 8]: +12 mV
Δ IMAX [1, 9]: +30%
Δ IMAX ([1]; TR: thalamic relay): ECM; +31% TR; BC;
Δ V1/2 ([1]; TR: thalamic relay): +5 mV

CCCCC[C@H](O)/C=C/[C@H]1[C@H](O)CC(=O)[C@@H]1C/C=C\CCCC(=O)O [PGE2]
Δ IMAX ([1]; NG: Nodose ganglion): +18% NG, TG
Δ V1/2 ([1]; NG: Nodose ganglion): +6 mV NG, TG
Δ IMAX ([1]; TG: Trigeminal ganglion): +18% NG, TG
Δ V1/2 ([1]; TG: Trigeminal ganglion): +6 mV NG, TG

VIP: agonist listed for PAC1 receptor (HSDAVFTDNYTRLRKQMAVKKYLNSILN; ends and bridges not checked; UniProt P01282 125-152, looked up)
Δ IMAX ([1]; TR: thalamic relay): +30% TR
Δ V1/2 ([1]; TR: thalamic relay): +7 mV TR

C[N+](C)(C)CCOC(N)=O [carbachol]
Δ IMAX ([1]; ECM: Embryonic cardiomyocytes): −41%
Δ IMAX ([1]; LGN): CA1; +43% LGN
Δ V1/2 ([1]; LGN): CA1; +5 mV LGN
Δ V1/2 ([1]; PF: cardiac purkinje fibre): −8 mV SA, PF
Δ V1/2 ([1]; SA: sinoatrial node): −8 mV SA, PF

COc1cc(CC(C)N)c(OC)cc1I (stereo not shown) [DOI]
Δ V1/2 [1, 10]: −8 mV
Δ IMAX ([1]; FM: Facial motor neurons): +25%
Δ V1/2 ([1]; VT: Ventral tegmental neurons): −7 m

Clc1cccc(Cl)c1N=C1NCCN1 [Clonidine]
Δ IMAX [1, 5]: HG, −40% DRG
Δ V1/2 ([1]; HG: Hypoglossal motor neurons): −4 mV HG

AT-II: agonist listed for angiotensin AT½ receptor (DRVYIHPF; Angiotensin-2; UniProt P01019 25-32, looked up)
Δ V1/2 ([1]; PVN: Hypothalamic paraventricular neurons): +8m PVN

PACAP38: agonist listed for PAC1 receptor (HSDGIFTDSYSRYRKQMAVKKYLAAVLGKRYKQRVKNK; ends and bridges not checked; UniProt P18509 132-169, looked up)
Δ IMAX ([1]; TR: thalamic relay): +30% TR
Δ V1/2 ([1]; TR: thalamic relay): +7 mV TR

OC[C@H]1O[C@@H](n2cnc3c(NC4CCCCC4)ncnc32)[C@H](O)[C@@H]1O [N6-CHA]
Δ V1/2 [1, 5]: −7 mV
Δ V1/2 ([1]; SA: sinoatrial node): −6 mV

EGF: agonist listed for EGF receptor
Δ IMAX ([1]; SA: sinoatrial node): +23% SA

NCCc1ccc(O)c(O)c1 [Dopamine]
Δ IMAX [1, 11]: −50%
Δ V1/2 [1, 11]: −9 mV
Δ V1/2 ([1]; PG: Pyloric ganglion motor neurons): +20 mV PG
Δ IMAX ([1]; ROD: Rod photoreceptors): −30% ROD
Δ V1/2 ([1]; ROD: Rod photoreceptors): −17 mV
Δ IMAX ([1]; VT: Ventral tegmental neurons): −20%

NCC(CC(=O)O)c1ccc(Cl)cc1 (stereo not shown) [Baclofen]
Δ IMAX ([1]; SNZC: Substantia nigra zona compacta): −11%
Δ IMAX ([1]; VT: Ventral tegmental neurons): −20%

Phosphatidyl-inositol 4,5-bisphosphate [4,5-PIP2]
Effect on gating activity under rundown condition ([3]; IOP-clamp): restore the gating activity
Effect on gating slope ([3]; IOP-clamp after rundown): restores the more shallow gating slope
Mean shift in V1/2 contributed by 4,5-PIP2 to intact cell gating ([3]; IOP-clamp after rundown): ~20 mV
Effect on gating of rundown channels ([4]; HCN1-ΔNvΔC, 5 uM 4,5-PIP2, 5 min): redepolarizes gating
Response to 4,5-PIP2 facilitation of channel gating ([4]; mutants NT1, NT2 and NT3 of HCN1-ΔNvΔCterm, 5 μM 4,5-PIP2): reduced response
Response (difference in V1/2) to 4,5-PIP2 versus wild type ([4]; mutants R59A, S23-3A, R112A, S45-3A of HCN1-ΔNvΔC, 5 uM 4,5-PIP2): not different from wild type

NCCc1c[nH]c2ccc(O)cc12 [5-HT]
Δ V1/2 [1, 6]: +15 mV
Δ V1/2 ([1]; BSMN: Brainstem motor neurons): +6 mV BSMN
Δ IMAX ([1]; CMN: crustacean motor neurons): +20%
Δ V1/2 ([1]; CMN: crustacean motor neurons): +10 mV
Δ V1/2 [1, 10]: −8 mV
Δ V1/2 [1, 5]: +6 mV
Δ IMAX ([1]; FM: Facial motor neurons): +25%
Δ IMAX ([1]; PH: Prepositus Hyperglossi neurons): +30%
Δ IMAX ([1]; ST: Solitary tract neurons): +100% ST
Δ IMAX ([1]; TR: thalamic relay): +20%
Δ V1/2 ([1]; TR: thalamic relay): +5 mV
Δ V1/2 ([1]; VT: Ventral tegmental neurons): −7 m

OC[C@H]1O[C@@H](n2cnc3c(NC4CCCC4)ncnc32)[C@H](O)[C@@H]1O [N6-CPA]
Δ V1/2 [1, 5]: −7 mV
Δ V1/2 ([1]; SA: sinoatrial node): −6 mV

B1: BDNF: neurotrophin, agonist listed for TrkA/B/C, P75 (protein, UniProt P23560 19-247, looked up)
Neurotrophic factor BDNF …: APMKEANIRGQGGLAYPGVRTHGTLESVNGPKAGSRGLTSLADTFEHVIEELLDEDQKVRPNEENNKDADLYTSRVMLSSQVPLEPPLLFLLEEYKNYLDAANMSMRVRRHSDPARRGELSVCDSISEWVTAADKKTAVDMSGGTVTVLEKVPVSKGQLKQYFYETKCNPMGYTKEGCRGIDKRHWNSQCRTTQSYVRALTMDSKKRIGWRFIRIDTSCVCTLTIKRGR
Δ IMAX ([1]; PBC: Pre-botzinger complex): −46% PBC
Δ V1/2 ([1]; PBC: Pre-botzinger complex): −17 mV PBC
